# In PubChem BioAssay (NCI):
#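 Grown in 96-well plates, cells were treated for 48 hours with each compound at five concentrations. Insufficient inhibition: endpoint recorded as highest concentration tested. Here, GI50 denotes the concentration required for 50% inhibition of growth. TGI denotes the concentration required for complete inhibition of growth.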
# System: M19-MEL melanoma
# Test: NCI anticancer screen, dose series, 48 h
SMILES,TGI,GI50
COc1ccc(OC)c(N2CC(N)C2=O)c1 (configuration not stated),> 100 µM,–
O=C(/C=C/c1ccc([N+](=O)[O-])cc1)c1ccc(NCc2nc3ccccc3[nH]2)cc1,15.3 µM,–
Cc1cccc(C)c1NC(=O)CCCC(=O)C1/C(=N/NC(=O)CC#N)CCC/C1=N\NC(=O)CC#N (configuration not stated),> 100 µM,–
CN(C)CC1CC/C(=C\c2ccc(O)cc2)C1=O (configuration not stated),7.55 µM,–
O=c1ccc2ccccc2cc1[O-].O=c1ccc2ccccc2cc1[O-].[O]=[U+2]=[O],96.7 µM,24.8 µM
O=C1C=CC(=O)c2nc3c(cc21)CCC3,31.2 µM,–
O=S(=O)(N/N=C/c1cccc(/C=N/NS(=O)(=O)c2ccccc2)c1)c1ccccc1,> 100 µM,–
C=C(C)CCOC(c1ccccc1)(c1ccccc1)c1ccccc1,> 100 µM,–
COc1ccc(C)cc1-c1cc(Sc2ccccc2)c(-c2cc(C)ccc2OC)o1,> 31.6 µM,–
CN(C)CCn1c2c3ccccc3ccc2c2oc(=O)c3ccccc3c21,25 µM,–

# System: SNB-78 CNS
# Test: NCI anticancer screen, dose series, 48 h
row,SMILES,TGI
1,CC(=O)NNc1nc(C)c(C(=O)/C=C/c2ccc(NC(C)=O)cc2)s1,> 100 µM
2,c1ccc(NCn2cnc3ccccc32)cc1,> 100 µM
3,N#C/C(=C\c1cccc(Cl)c1Cl)c1ccccc1,> 100 µM
4,C/C(=N/Nc1ccc([N+](=O)[O-])cc1[N+](=O)[O-])C(CC(C(=O)NCc1ccccc1)/C(C)=N\Nc1ccc([N+](=O)[O-])cc1[N+](=O)[O-])C(=O)NCc1ccccc1 (configuration not stated),31 µM
5,O=C(/C=C/c1ccc([N+](=O)[O-])cc1)c1ccc(NCc2nc3ccccc3[nH]2)cc1,29 µM
6,Cc1cccc(C)c1NC(=O)CCCC(=O)C1/C(=N/NC(=O)CC#N)CCC/C1=N\NC(=O)CC#N (configuration not stated),> 100 µM
7,CN(C)CC1CC/C(=C\c2ccc(O)cc2)C1=O (configuration not stated),17.9 µM
8,O=C1C=CC(=O)c2nc3c(cc21)CCC3,42 µM
9,O=S(=O)(N/N=C/c1cccc(/C=N/NS(=O)(=O)c2ccccc2)c1)c1ccccc1,> 100 µM
10,CCCCN(CCCC)C(=O)C(=O)C(C(=O)c1ccc(OC)cc1)c1ccc(OC)cc1 (configuration not stated),> 100 µM
11,C=C(C)CCOC(c1ccccc1)(c1ccccc1)c1ccccc1,> 100 µM
12,COc1ccc(C)cc1-c1cc(Sc2ccccc2)c(-c2cc(C)ccc2OC)o1,> 31.6 µM
13,CN(C)CCn1c2c3ccccc3ccc2c2oc(=O)c3ccccc3c21,48.1 µM

# System: DMS 114 small cell lung
# Test: NCI anticancer screen, dose series, 48 h
SMILES,TGI,GI50
COC(=O)CC(c1ccccc1)C1(c2ccccc2)SCCS1 (configuration not stated),> 290 µM,–
c1ccc(NCn2cnc3ccccc32)cc1,> 100 µM,–
N#C/C(=C\c1cccc(Cl)c1Cl)c1ccccc1,> 73.1 µM,–
C/C(=N/Nc1ccc([N+](=O)[O-])cc1[N+](=O)[O-])C(CC(C(=O)NCc1ccccc1)/C(C)=N\Nc1ccc([N+](=O)[O-])cc1[N+](=O)[O-])C(=O)NCc1ccccc1 (configuration not stated),23.8 µM,–
O=C(/C=C/c1ccc([N+](=O)[O-])cc1)c1ccc(NCc2nc3ccccc3[nH]2)cc1,7.44 µM,–
Cc1cccc(C)c1NC(=O)CCCC(=O)C1/C(=N/NC(=O)CC#N)CCC/C1=N\NC(=O)CC#N (configuration not stated),> 100 µM,–
CN(C)CC1CC/C(=C\c2ccc(O)cc2)C1=O (configuration not stated),23.5 µM,–
O=c1ccc2ccccc2cc1[O-].O=c1ccc2ccccc2cc1[O-].[O]=[U+2]=[O],55.3 µM,19.9 µM
O=C1C=CC(=O)c2nc3c(cc21)CCC3,42.5 µM,–
O=S(=O)(N/N=C/c1cccc(/C=N/NS(=O)(=O)c2ccccc2)c1)c1ccccc1,> 100 µM,–
CCCCN(CCCC)C(=O)C(=O)C(C(=O)c1ccc(OC)cc1)c1ccc(OC)cc1 (configuration not stated),> 100 µM,–
COc1ccc(C)cc1-c1cc(Sc2ccccc2)c(-c2cc(C)ccc2OC)o1,> 31.6 µM,–

# System: DMS 273 small cell lung
# Test: NCI anticancer screen, dose series, 48 h
SMILES,TGI,GI50
COC(=O)CC(c1ccccc1)C1(c2ccccc2)SCCS1 (configuration not stated),> 290 µM,–
CC(=O)NNc1nc(C)c(C(=O)/C=C/c2ccc(NC(C)=O)cc2)s1,> 100 µM,–
c1ccc(NCn2cnc3ccccc32)cc1,> 100 µM,–
N#C/C(=C\c1cccc(Cl)c1Cl)c1ccccc1,> 54.1 µM,–
C/C(=N/Nc1ccc([N+](=O)[O-])cc1[N+](=O)[O-])C(CC(C(=O)NCc1ccccc1)/C(C)=N\Nc1ccc([N+](=O)[O-])cc1[N+](=O)[O-])C(=O)NCc1ccccc1 (configuration not stated),20.4 µM,–
COc1ccc(OC)c(N2CC(N)C2=O)c1 (configuration not stated),> 100 µM,–
O=C(/C=C/c1ccc([N+](=O)[O-])cc1)c1ccc(NCc2nc3ccccc3[nH]2)cc1,13.6 µM,–
Cc1cccc(C)c1NC(=O)CCCC(=O)C1/C(=N/NC(=O)CC#N)CCC/C1=N\NC(=O)CC#N (configuration not stated),> 100 µM,–
CN(C)CC1CC/C(=C\c2ccc(O)cc2)C1=O (configuration not stated),9.68 µM,–
O=c1ccc2ccccc2cc1[O-].O=c1ccc2ccccc2cc1[O-].[O]=[U+2]=[O],> 100 µM,6.71 µM
O=C1C=CC(=O)c2nc3c(cc21)CCC3,47.4 µM,–
O=S(=O)(N/N=C/c1cccc(/C=N/NS(=O)(=O)c2ccccc2)c1)c1ccccc1,> 100 µM,–
COc1ccc(C)cc1-c1cc(Sc2ccccc2)c(-c2cc(C)ccc2OC)o1,> 31.6 µM,–

# System: MDA-N
# Test: NCI anticancer screen, dose series, 48 h
row,SMILES,TGI
1,CN(C)CC1CC/C(=C\c2ccc(O)cc2)C1=O (configuration not stated),6.8 µM
